In ChEMBL document CHEMBL2202954, “The effect of PLC-γ2 inhibitors on the growth of human tumour cells” (2012):

What was measured:
Format in all cases: functional
OVCAR-3 = test: Cytotoxicity against human OVCAR3 cells assessed as cellular growth at 10 uM by SRB assay
[1] = Cytotoxicity against human NCI-ADR-RES cells assessed as cellular growth at 10 uM by SRB assay
UO-31 = test: Cytotoxicity against human UO31 cells assessed as cellular growth at 10 uM by SRB assay
SNB-19 = test: Cytotoxicity against human SNB19 cells assessed as cellular growth at 10 uM by SRB assay
786-0 = test: Cytotoxicity against human 786-0 cells assessed as cellular growth at 10 uM by SRB assay
NCI-H226 = test: Cytotoxicity against human NCI-H226 cells assessed as cellular growth at 10 uM by SRB assay
SNB-75 = test: Cytotoxicity against human SNB75 cells assessed as cellular growth at 10 uM by SRB assay
LOX IMVI = test: Cytotoxicity against human LOXIMVI cells assessed as cellular growth at 10 uM by SRB assay
EKVX = test: Cytotoxicity against human EKVX cells assessed as cellular growth at 10 uM by SRB assay
SF-539 = test: Cytotoxicity against human SF539 cells assessed as cellular growth at 10 uM by SRB assay
HT-29 = test: Cytotoxicity against human HT-29 cells assessed as cellular growth at 10 uM by SRB assay
ACHN = test: Cytotoxicity against human ACHN cells assessed as cellular growth at 10 uM by SRB assay
HL-60(TB) = test: Cytotoxicity against human HL-60(TB) cells assessed as cellular growth at 10 uM by SRB assay
SR = test: Cytotoxicity against human SR cells assessed as cellular growth at 10 uM by SRB assay
MCF7 = test: Cytotoxicity against human MCF7 cells assessed as cellular growth at 10 uM by SRB assay
TK-10 = test: Cytotoxicity against human TK10 cells assessed as cellular growth at 10 uM by SRB assay
NCI-H322M = test: Cytotoxicity against human NCI-H322M cells assessed as cellular growth at 10 uM by SRB assay
SK-MEL-28 = test: Cytotoxicity against human SK-MEL-28 cells assessed as cellular growth at 10 uM by SRB assay
T47D = test: Cytotoxicity against human T47D cells assessed as cellular growth at 10 uM by SRB assay
SF-295 = test: Cytotoxicity against human SF295 cells assessed as cellular growth at 10 uM by SRB assay

SMILES | Activity (OVCAR-3) | Activity [1] | Activity (UO-31) | Activity (SNB-19) | Activity (786-0) | Activity (NCI-H226) | Activity (SNB-75) | Activity (LOX IMVI) | Activity (EKVX) | Activity (SF-539) | Activity (HT-29) | Activity (ACHN) | Activity (HL-60(TB)) | Activity (SR) | Activity (MCF7) | Activity (TK-10) | Activity (NCI-H322M) | Activity (SK-MEL-28) | Activity (T47D) | Activity (SF-295)
Cc1ccc(C2=N/C(=C\c3ccccc3)C(=O)O2)cc1 | 105.55% | 107.34% | 102.89% | 103.53% | 103.22% | 102% | 90.22% | 105.76% | 90.26% | 103.23% | 107.8% | 104.91% | 95.82% | 88.58% | 103.73% | 112.19% | 114.1% | 105.81% | 105.06% | 
Nc1c(C(=O)Nc2ccccc2)sc2nc3c(cc12)C(=O)CCC3 | -19.35% | -6.39% | 71.08% | 36.05% | 36.19% | 68% | 12.41% | 51.19% | 84.59% | 0.84% | 4.34% | 49.71% | 19.38% | 21.95% | 19.61% | 63.62% | 67.12% | 58.69% | 47.06% | -12.42%
CC1(C)CC(=O)c2cc3c(N)c(C(=O)NCc4ccccc4)sc3nc2C1 | 115.21% | 93.37% | 110.68% | 108.68% | 109.38% | 86.42% | 98.33% | 102.22% | 108.91% | 96.57% | 106.09% | 102.79% | 120.86% | 116.5% | 87.02% | 106.71% | 101.83% | 102.38% | 100.55% | 100.81%
O=C(Nc1nc2ccc(Cl)cc2s1)c1ccc(Cl)cc1Cl | 109.17% | 98.55% | 101% | 109.5% | 95.62% | 101.52% | 114.42% | 98.46% | 82.69% | 101.57% | 94.25% | 109.65% | 92.55% | 98.17% | 98.4% | 88.34% | 105.38% | 107.5% | 95.96% | 76.92%
O=C(Nc1ccc2oc(=O)ccc2c1)c1ccc(-c2ccc(Cl)c(Cl)c2)o1 | 102.55% | 78.15% | 65.88% | 101.4% | 88.1% | 92.4% | 92.21% | 47.73% | 94.26% | 90.55% | 92.94% | 78.44% | 85.04% | 89.98% | 86.24% | 90.37% | 91.94% | 101.23% | 81.58% | 102.01%
Cc1ccc(Cl)cc1NC(=O)c1sc2nc3c(cc2c1N)C(=O)CCC3 | 22.12% | 43.81% | 83.44% | 68.14% | 89.229% | 88.29% | 48.01% | 68.07% | 75.28% | 47.69% | 28.78% | 55.94% | 82.22% | 68.85% | 35.55% | 96.55% | 95.72% | 67.01% | 82.87% | 4.01%
Nc1c(C(=O)Nc2cccc(Cl)c2)sc2nc3c(cc12)C(=O)CCC3 | 10.31% | 17.69% | 57.11% | 38.19% | 47.72% | 57.93% | 25.91% | 46.08% | 58.16% | 27.25% | 23.87% | 54.19% | 33.11% | 39.11% | 16.68% | 64.95% | 71.82% | 51.4% | 52.94% | -20.21%
Cc1cc(C)c(NC(=O)c2sc3nc4c(cc3c2N)C(=O)CCC4)c(C)c1 | 13.17% | -8.04% | 56.95% | 40.22% | 30.39% | 77.05% | 0% | 50.61% | 54.36% | -6.5% | 0.48% | 55.26% | 14.55% | 10.54% | 16.79% | 44.75% | 56.34% | 55.98% | 40.64% | -11.34%
COc1cccc(C(=O)Nc2nc3ccc(Cl)cc3s2)c1 | 100.09% | 75.07% | 92.38% | 113.6% | 98.19% | 93.47% | 109.63% | 94.46% | 81.47% | 101.47% | 80.12% | 91.34% | 68.73% | 61.65% | 85.29% | 88.7% | 104.25% | 101.98% | 79.7% | 67.73%
O=C(Nc1ccc2oc(=O)ccc2c1)c1ccc(-c2ccc(Br)cc2)o1 | 125.42% | 101.15% | 127.52% | 105.93% | 95.42% | 112.35% | 104.41% | 105.3% | 113.5% | 101.06% | 108.43% | 121.66% | 101.52% | 102.2% | 98.67% | 102.05% | 154.44% | 119.2% | 100.95% | 
Clc1ccc(-c2nc(-c3cccs3)no2)cc1 | 103.69% | 106.94% | 74.13% | 103.81% | 99.58% | 100.24% | 81.53% | 93.13% | 85.36% | 92.56% | 106.39% | 96.33% | 98.45% | 85.71% | 36.78% | 109.61% | 113.5% | 115.07% | 66.67% | 92.23%
Cc1cc(C)c(NC(=O)c2sc3nc4c(cc3c2N)C(=O)CC(C)(C)C4)c(C)c1 | 112.82% | 95.48% | 99.05% | 122.53% | 103.33% | 92.57% | 105.78% |  | 92.06% | 102.77% | 96.21% | 106.81% | 108.84% | 103.93% | 99.03% | 97.91% | 115.34% | 107.04% | 88.69% | 81.11%
O=C(NCCc1ccccc1)c1cc2cccc([N+](=O)[O-])c2[nH]1 | 109% | 97.02% | 62.13% | 97.53% | 105.28% | 82.38% |  | 85.8% | 83.28% | 103.09% | 99.19% | 93.06% | 114.53% | 91.6% |  | 102.94% | 115.94% | 99.12% | 69.69% | 92.52%
Nc1c(C(=O)NCc2ccccc2)sc2nc3c(cc12)C(=O)CCC3 | 115.33% | 100.02% | 109.24% | 117.75% | 110.1% | 106.37% | 113.06% | 103.06% |  | 105.28% | 116.55% | 112.59% | 119.79% | 116.81% | 110.54% | 115.8% | 123.15% | 118.31% | 106.44% | 
